Source: patent publication US5607934A, “Piperazine derivatives and salts thereof” (Otsuka Pharmaceutical Co., Ltd., priority 1993, dated 1997)
Converted amounts (≈) assume the structure as drawn.

How the values were obtained:
[1] = system: superoxide radicals (O2^-) released from the peritoneal macrophage cells of guinea pig; assay: Inhibitory effect against superoxide radicals (O2^-) released from the peritoneal macrophage cells of guinea pig by stimulation (FMLP); assay type: cell-based; settings: Cavia porcellus, Peritoneal macrophage cell; guinea pig peritoneal macrophages 2×10^6 cells/ml; FMLP 10^-7 M; cytochrome C reduction, OD550
Procedure: Inhibitory effect against superoxide radicals (O2^-) released from the peritoneal macrophage cells of guinea pig by stimulation:
Mineral oil (15 ml)was intraperitoneally administered to a guinea pig, then 96 hours after the administration, the peritoneal macrophage cells were sampled.
Superoxide radicals (O2^-) were determined by means of reduction of cytochrome C method according to the procedure described in an article written by T. Matsumoto, K. Takeshige and S. Minakami: Biochemical and Biophysical Research Communications, Vol. 88, No. 3, pp. 974-979, (1979).
Into 1 ml of 80 μM-cytochrome C solution, the peritoneal macrophage cells were added to make the final concentration of 2×10^6 cells/ml, then each one of the test compounds of the present invention was added thereto to make the test group sample. On the other hand, water was added in place of the test compound of the present invention to make the control group sample. Each of the test group samples and the control group samples were subjected to pre-incubation at 37° C. for 1 minute.
As to the stimulating agent for releasing superoxide radicals (O2^-), FMLP (formylmethionyl leucyl phenylalanine)was added to each one of the test sample solutions and the control group samples to make the final concentration of FMLP to 10^-7 M, then the sample solutions were subjected to additional reaction by incubation for 1 minute.
Difference between the optical absorbances measured at 550 nm (OD550) of both test group samples and control group samples were determined, the 50% inhibitory concentration (IC50) was obtained by calculating as the ratio of OD550 of the test group sample to that of the control group sample.

[2] = system: releasing of lysozomal enzyme from the neutrocytes of rat; assay: Inhibitory effect against the releasing of lysozomal enzyme from the neutrocytes of rat; assay type: cell-based; settings: rat neutrocytes 5×10^5 cells/ml; FMLP 10^-6 M + cytocharasin B 5 μg/ml; OD540
Procedure: Inhibitory effect against the releasing of lysozomal enzyme from the neutrocytes of rat
The neutrocytes of rat were samples from the abdominal cavity of rat 16 hours after the administration of 10 ml of 1% casein solution (physiological saline solution).
Reaction of the releasing of lysozomal enzyme from the neutrocytes of rat was determined by means of the method as described in an article written by T. Matsumoto, K. Takeshige and S. Minakami: Biochemical and Biophysical Research Communications, Vol. 88, No. 3, pp 974-979, (1979).
The neutrocytes being sampled were added to Hank's solution so as to make the concentration thereof as 5×10^5 cells/ml, the test compound of piperazine derivative of the present invention was added thereto to make the test group sample. On the other hand, water was added in place of the piperazine derivative of the present invention to make the control group sample. Each of the test group samples and the control group samples were subjected to pre-incubation at 37° C. for 1 minute.
As to the stimulating agents, 10^-6 M of FMLP (formylmethionyl leucyl phenylalanine) and 5 μg/ml of cytocharasin B solution were added to the test solutions. Thus obtained mixture of the solution was reacted by incubating for 15 minutes. After the incubation, the mixture of the solution was subjected to centrifugation at 2,000 rpm for 10 minutes. The supernatant (0.2 ml) was admixed with 0.5 ml of 0.1 M-acetic acid buffer solution (pH 4.5) in which 0.2 mM of phenolphthalein glucuronic acid was dissolved. Then the resulting mixture of the solution was reacted at 37° C. for 5 hours by incubation. After the reaction, 1N-NaOH solution was added to the reaction mixture so as to make the pH value thereof to pH 8 to 9, and the optical absorbance of both test group samples and control group samples were determined at 540 nm (OD540).
The 50% inhibitory concentration (IC50) values were obtained by calculation as the ratio of OD540 of the test group sample to that of the control group sample.

[3] = system: releasing of hydrogen peroxide (H2 O2) from the neutrocyte of abdominal cavity of rat; assay: Inhibitory effect against the releasing of hydrogen peroxide (H2O2) from the neutrocyte of abdominal cavity of rat; assay type: cell-based, SD-strain rat; settings: rat neutrocytes 10^6 cells/ml; FMLP 2×10^-6 M; 37° C., 1 hour; OD610
Procedure: Inhibitory effect against the releasing of hydrogen peroxide (H2 O2) from the neutrocyte of abdominal cavity of rat
1%-Casein solution was administered to the abdominal cavity of a SD-strain rat, then 16 hours after the administration, the neutrocytes were obtained by washing the abdominal cavity. Thus obtained neutrocytes were washed with Hank's solution.
In to a reaction mixture consisting of the following ingredients:
______________________________________
HRP (Horse Radish peroxide)
HEPES [N-(2-Hydroxyethyl)pipera-
zine N'-2-ethanesulfonic acid]
Rat neutrocytes 10^6 cells/ml
the test compound was added, then the whole mixture was incubated at 37° C. for 1 hour, and the mixture was subjected to a centrifugal separation at 2,000 rpm for minutes. After the centrifugal separation, 1 ml of the supernatant was sampled and 10 μl of 1N-NaOH aqueous solution was added thereto. Then, the optical absorbance at 610 nm (OD610) of the supernatant was determined by means of using a spectro-photometer.
The IC50 (50% inhibitory concentration) of the test compound was obtained by calculating as the ratio of OD610 of the test group sample to that of the control group sample.

| IC50 [2] [µg/mL] | IC50 [3] [µg/mL] | Compound | IC50 [1] [µg/mL] |
| --- | --- | --- | --- |
| 3 |  | CC(C)C[C@H]1C(=O)N[C@](Cc2ccccc2)(C(=O)Nc2nc3ccccc3s2)C(=O)N1O (racemic) [Example 27, (3RS,6SR)-3-(benzothiazol-2-yl)carbamoyl-3-benzyl-1-hydroxy-6-isobutylpiperazine-2,5-dione] | 0.25 (≈ 0.552 µM) |
| 2 | 5 (≈ 13.8 µM) | COc1cccc(CNC(=O)[C@@]2(C)NC(=O)[C@H](CC(C)C)N(O)C2=O)c1 (racemic) [Example 29, (3RS,6SR)-1-hydroxy-6-isobutyl-3-[N-(3-methoxybenzyl)]carbamoyl-3-methylpiperazine-2,5-dione] | 3 (≈ 8.26 µM) |
|  | < 3 | COc1cc(C[C@@H]2NC(=O)[C@H](CC(C)C)N(O)C2=O)cc(OC)c1OC (relative stereo) [Example 15] |  |
|  | < 3 | COc1cc(C[C@@H]2NC(=O)[C@@H](CC(C)C)N(O)C2=O)cc(OC)c1OC (relative stereo) [Example 16] | 30 (≈ 81.9 µM) |
|  | < 3 | COc1cc(C[C@@H]2NC(=O)[C@H](CC(C)C)N(O)C2=O)cc(OC)c1O (relative stereo) [Example 17] |  |
|  | 5 (≈ 14.9 µM) | COc1ccc(C[C@@H]2NC(=O)[C@H](CC(C)C)N(O)C2=O)c(OC)c1 (relative stereo) [Example 18] |  |
|  | 5 (≈ 14.9 µM) | COc1ccc(C[C@@H]2NC(=O)[C@@H](CC(C)C)N(O)C2=O)c(OC)c1 (relative stereo) [Example 19] | 30 (≈ 89.2 µM) |
| 3 |  | COc1cccc(CNC(=O)[C@]2(Cc3ccccc3)NC(=O)[C@@H](CC(C)C)N(O)C2=O)c1 (relative stereo) [Example 28] | 3 (≈ 6.83 µM) |
|  | 3 (≈ 9.05 µM) | CCOC(=O)[C@H]1NC(=O)[C@@H](Cc2c[nH]c3ccccc23)N(O)C1=O (relative stereo) [Example 55] |  |
|  | < 6 | CC(C)C[C@H]1C(=O)N[C@@H](Cc2ccccc2)C(=O)N1O [Example 9, (3S, 6s)-3-benzyl-1-hydroxy-6-isobutylpiperazine-2,5-dione] |  |
|  |  | CC(C)C[C@@H]1C(=O)N[C@@H](Cc2ccccc2)C(=O)N1O [Example 10, (3S,6R)-3-Benzyl-1-hydroxy-6-isobutylpiperazine-2,5-dione] | 18 (≈ 65.1 µM) |
|  | 6 (≈ 20.5 µM) | CC(C)C[C@@H]1C(=O)N[C@@H](Cc2ccc(O)cc2)C(=O)N1O [Example 11] |  |
| 30 |  | CC(C)C[C@H]1C(=O)N[C@@H](Cc2cc(Cl)c(O)c(Cl)c2)C(=O)N1O [Example 20] | 30 (≈ 83.1 µM) |
|  | 10 (≈ 27.7 µM) | CC(C)C[C@@H]1C(=O)N[C@@H](Cc2cc(Cl)c(O)c(Cl)c2)C(=O)N1O [Example 21] |  |
|  | 3 (≈ 8.42 µM) | CC(C)C[C@@H]1C(=O)N[C@@H](Cc2cn(Cc3ccccc3)cn2)C(=O)N1O [Example 26] | 6 (≈ 16.8 µM) |
|  |  | CC(C)C[C@@H]1NC(=O)[C@H](Cc2c[nH]c3ccccc23)N(O)C1=O [Example 47, (3S,6S)-1-Hydroxy-6-(3-indolylmethyl)-3-isobutylpiperazine-2,5-dione] | 10 (≈ 31.7 µM) |
|  | < 3 | CC(C)C[C@@H]1NC(=O)[C@@H](Cc2c[nH]c3ccccc23)N(O)C1=O [Example 48, (3S, 6R)-1-Hydroxy-6-(3-indolylmethyl)-3-isobutylpiperazine-2,5-dione] |  |
|  | < 3 | O=C1N[C@@H](Cc2ccccc2)C(=O)N(O)[C@H]1Cc1c[nH]c2ccccc12 [Example 49] | 10 (≈ 28.6 µM) |
|  | < 3 | O=C1N[C@@H](Cc2ccccc2)C(=O)N(O)[C@@H]1Cc1c[nH]c2ccccc12 [Example 50] |  |
|  | 3 (≈ 9 µM) | CSCC[C@@H]1NC(=O)[C@H](Cc2c[nH]c3ccccc23)N(O)C1=O [Example 51] | 3 (≈ 9 µM) |
|  |  | CSCC[C@@H]1NC(=O)[C@@H](Cc2c[nH]c3ccccc23)N(O)C1=O [Example 52] | 6 (≈ 18 µM) |
|  |  | O=C1N[C@@H](COCc2ccccc2)C(=O)N(O)[C@H]1Cc1c[nH]c2ccccc12 [Example 53] | 30 (≈ 79.1 µM) |
|  | 3 (≈ 7.91 µM) | O=C1N[C@@H](COCc2ccccc2)C(=O)N(O)[C@@H]1Cc1c[nH]c2ccccc12 [Example 54] |  |
|  | 6 (≈ 16.4 µM) | O=C1N[C@@H](Cc2ccc(O)cc2)C(=O)N(O)[C@H]1Cc1c[nH]c2ccccc12 [Example 60] | 10 (≈ 27.4 µM) |
|  | < 3 | O=C1[C@@H]2CCCN2C(=O)[C@H](Cc2c[nH]c3ccccc23)N1O [Example 64] |  |
